Measurements taken from patent publication US9963464B2, “Macrocyclic compounds” (Bayer Pharma Aktiengesellschaft, priority 2014, dated 2018).
Read-outs that look alike come from different tables or passages of the source.

Experiments:
DU145 cells = assay: Proliferation assay DU145; type: cell-based, human; details: 4 days, crystal violet, read-out: Inhibition of DU145 cell proliferation IC50
Protocol: Cultivated tumour cells (HeLa, human cervical tumour cells, ATCC CCL-2; NCI-H460, human non-small cell lung carcinoma cells, ATCC HTB-177; A2780, human ovarian carcinoma cells, ECACC #93112519; DU 145, hormone-independent human prostate carcinoma cells, ATCC HTB-81; HeLa-MaTu-ADR, multidrug-resistant human cervical carcinoma cells, EPO-GmbH Berlin; Caco-2, human colorectal carcinoma cells, ATCC HTB-37; B16F10, mouse melanoma cells, ATCC CRL-6475) were plated at a density of 5,000 cells/well (DU145, HeLa-MaTu-ADR), 3,000 cells/well (NCI-H460, HeLa), 2,500 cells/well (A2780), 1,500 cells/well (Caco-2), or 1,000 cells/well (B16F10) in a 96-well multititer plate in 200 μL of their respective growth medium supplemented 10% fetal calf serum. After 24 hours, the cells of one plate (zero-point plate) were stained with crystal violet (see below), while the medium of the other plates was replaced by fresh culture medium (200 μl), to which the test substances were added in various concentrations (0 μM, as well as in the range of 0.001-10 μM). The cells were incubated for 4 days in the presence of test substances. Cell proliferation was determined by staining the cells with crystal violet: the cells were fixed by adding 20 μl/measuring point of an 11% glutaric aldehyde solution for 15 minutes at room temperature. After three washing cycles of the fixed cells with water, the plates were dried at room temperature. The cells were stained by adding 100 μl/measuring point of a 0.1% crystal violet solution (pH 3.0). After three washing cycles of the stained cells with water, the plates were dried at room temperature. The dye was dissolved by adding 100 μl/measuring point of a 10% acetic acid solution. The extinction was determined by photometry at a wavelength of 595 nm. The change of cell number, in percent, was calculated by normalization of the measured values to the extinction values of the zero-point plate (=0%) and the extinction of the untreated (0 μm) cells (=100%). The IC50 values (inhibitory concentration at 50% of maximal effect) were determined by means of a 4 parameter fit. Non-adherent MOLM-13 human acute myeloid leukemia cells (DSMZ ACC 554) were seeded at a density of 5,000 cells/well in a 96-well multititer plate in 100 μL of growth medium supplemented 10% fetal calf serum. After 24 hours, cell viability of one plate (zero-point plate) was determined with the Cell Titre-Glo Luminescent Cell Viability Assay (Promega), while 50 μL of test compound containing medium was added to the wells of the other plates (final concentrations in the range of 0.001-1 μM and DMSO controls). Cell viability was assessed after 72-hour exposure with the Cell Titre-Glo Luminescent Cell Viability Assay (Promega). IC50 values (inhibitory concentration at 50% of maximal effect) were determined by means of a 4 parameter fit on measurement data which were normalized to vehicle (DMSO) treated cells (=100%) and measurement readings taken immediately before compound exposure (=0%).

CDK2/CycE = biological target: T1, CDK2/CycE (Homo sapiens, UniProt P24941); assay: CDK2/CycE kinase assay (TR-FRET, Method 2a); type: biochemical; details: 10 μM ATP
T1 construct: GST; purchased ProQinase GmbH (Freiburg, Germany); host or cells: insect cells (Sf9)
Source text: 2a. CDK2/CycE Kinase Assay:
CDK2/CycE-inhibitory activity of compounds of the present invention was quantified employing the CDK2/CycE TR-FRET assay as described in the following paragraphs:
Recombinant fusion proteins of GST and human CDK2 and of GST and human CycE, expressed in insect cells (Sf9) and purified by Glutathion-Sepharose affinity chromatography, were purchased from ProQinase GmbH (Freiburg, Germany). As substrate for the kinase reaction biotinylated peptide biotin-Ttds-YISPLKSPYKISEG (C-terminus in amid form) was used which can be purchased e.g. from the company JERINI Peptide Technologies (Berlin, Germany).
For the assay 50 nl of a 100 fold concentrated solution of the test compound in DMSO was pipetted into a black low volume 384 well microtiter plate (Greiner Bio-One, Frickenhausen, Germany), 2 μl of a solution of CDK2/CycE in aqueous assay buffer [50 mM Tris/HCl pH 8.0, 10 mM MgCl2, 1.0 mM dithiothreitol, 0.1 mM sodium ortho-vanadate, 0.01% (v/v) Nonidet-P40 (Sigma)] were added and the mixture was incubated for 15 min at 22° C. to allow pre-binding of the test compounds to the enzyme before the start of the kinase reaction. […] The concentration of CDK2/CycE was adjusted depending of the activity of the enzyme lot and was chosen appropriate to have the assay in the linear range, typical concentrations were in the range of 130 ng/mL. The reaction was stopped by the addition of 5 μl of a solution of TR-FRET detection reagents (0.2 μM streptavidine-XL665 [Cisbio Bioassays, Codolet, France] and 1 nM anti-RB(pSer807/pSer811)-antibody from BD Pharmingen [#558389] and 1.2 nM LANCE EU-W1024 labeled anti-mouse IgG antibody [Perkin-Elmer, product no. AD0077]) in an aqueous EDTA-solution (100 mM EDTA, 0.2% (w/v) bovine serum albumin in 100 mM HEPES pH 7.5).
The resulting mixture was incubated 1 h at 22° C. to allow the formation of complex between the phosphorylated biotinylated peptide and the detection reagents. Subsequently the amount of phosphorylated substrate was evaluated by measurement of the resonance energy transfer from the Eu-chelate to the streptavidine-XL. Therefore, the fluorescence emissions at 620 nm and 665 nm after excitation at 350 nm was measured in a TR-FRET reader, e.g. a Rubystar (BMG Labtechnologies, Offenburg, Germany) or a Viewlux (Perkin-Elmer). The ratio of the emissions at 665 nm and at […] was taken as the measure for the amount of phosphorylated substrate. The data were normalised (enzyme reaction without inhibitor=0% inhibition, all other assay components but no enzyme=100% inhibition).

Row | Compound | IC50 (DU145 cells; Homo sapiens, DU-145, 96 h) [nM] | IC50 (CDK2/CycE) [nM] | IC50 (DU145 cells) [nM] | IC50 (DU145 cells; trifluoroacetate) [nM]
1 | CS(=O)(=O)N=S(C)(=O)Cc1cc2nc(c1)OCCCOc1cc(F)ccc1-c1cc(ncc1F)N2 (racemic) [Example 22, (rac)-N-[{[15,19-difluoro-3,4-dihydro-2H,11H-10,6-(azeno)-12,16-(metheno)-1,5,11,13-benzodioxadiazacyclooctadecin-8-yl]methyl}(methyl)oxido-λ^6-sulfanylidene]methanesulfonamide] | 40 | 19.3 | – | –
2 | CS(=O)(Cc1cc2nc(c1)OCCCOc1cc(F)ccc1-c1cc(ncc1F)N2)=NS(=O)(=O)CCN (racemic) [Example 23, (rac)-2-amino-N-[{[15,19-difluoro-3,4-dihydro-2H,11H-10,6-(azeno)-12,16-(metheno)-1,5,11,13-benzodioxadiazacyclooctadecin-8-yl]methyl}(methyl)oxido-λ^6-sulfanylidene]ethanesulfonamide] | – | 30.2 | 833 | –
3 | CS(=O)(Cc1cc2nc(c1)OCCCOc1cc(F)ccc1-c1cc(ncc1F)N2)=NS(=O)(=O)CCN.O=C(O)C(F)(F)F (racemic) [Example 24, (rac)-2-{[{[15,19-difluoro-3,4-dihydro-2H,11H-10,6-(azeno)-12,16-(metheno)-1,5,11,13-benzodioxadiazacyclooctadecin-8-yl]methyl}(methyl)oxido-λ^6-sulfanylidene]sulfamoyl}ethanaminium trifluoroacetate] | – | 13.5 | – | 387
4 | CS(=O)(Cc1cc2nc(c1)OCCCOc1cc(F)ccc1-c1cc(ncc1F)N2)=NC(=O)OCCN (racemic) [Example 25, (rac)-2-aminoethyl [{[15,19-difluoro-3,4-dihydro-2H,11H-10,6-(azeno)-12,16-(metheno)-1,5,11,13-benzodioxadiazacyclooctadecin-8-yl]methyl}(methyl)oxido-λ^6-sulfanylidene]carbamate] | 123 | 5.6 | – | –
5 | CS(=N)(=O)Cc1cc2nc(c1)OCCCOc1cc(F)ccc1-c1cc(ncc1F)N2 (single isomer, unassigned; enantiomer 1) [Example 6, 15,19-Difluoro-8-[(S-methylsulfonimidoyl)methyl]-3,4-dihydro-2H,11H-10,6-(azeno)-12,16-(metheno)-1,5,11,13-benzodioxadiazacyclooctadecine; Enantiomer 1] | 4 | 2.7 | – | –
6 | CS(=N)(=O)Cc1cc2nc(c1)OCCCOc1cc(F)ccc1-c1cc(ncc1F)N2 (single isomer, unassigned; enantiomer 2) [Example 7, 15,19-Difluoro-8-[(S-methylsulfonimidoyl)methyl]-3,4-dihydro-2H,11H-10,6-(azeno)-12,16-(metheno)-1,5,11,13-benzodioxadiazacyclooctadecine; Enantiomer 2] | – | 2.4 | 5 | –
7 | CSCc1cc2cc(c1)OCCCOc1cc(F)ccc1-c1nc(ncc1F)N2 [Example 2, 15,19-Difluoro-8-[(methylsulfanyl)methyl]-3,4-dihydro-2H,11H-12,16-(azeno)-10,6-(metheno)-1,5,11,13-benzodioxadiazacyclooctadecine] | 111 | 97.8 | – | –
8 | CSCc1cc2nc(c1)OCCCOc1cc(F)ccc1-c1cc(ncc1F)N2 [Example 3, 15,19-Difluoro-8-[(methylsulfanyl)methyl]-3,4-dihydro-2H,11H-10,6-(azeno)-12,16-(metheno)-1,5,11,13-benzodioxadiazacyclooctadecine] | 88 | 41 | – | –
9 | CS(=O)(=O)Cc1cc2nc(c1)OCCCOc1cc(F)ccc1-c1cc(ncc1F)N2 [Example 8, 15,19-difluoro-8-[(methylsulfonyl)methyl]-3,4-dihydro-2H,11H-10,6-(azeno)-12,16-(metheno)-1,5,11,13-benzodioxadiazacyclooctadecine] | 17 | 5 | – | –
10 | CSCc1cc2nc(c1)OCCCCOc1cc(F)ccc1-c1cc(ncc1F)N2 [Example 12, 16,20-Difluoro-9-[(methylsulfanyl)methyl]-2,3,4,5-tetrahydro-12H-11,7-(azeno)-13,17-(metheno)-1,6,12,14-benzodioxadiazacyclononadecine] | 218 | 114 | – | –
11 | NCCS(=O)(=O)Cc1cc2nc(c1)OCCCOc1cc(F)ccc1-c1cc(ncc1F)N2 [Example 26, 2-({[15,19-difluoro-3,4-dihydro-2H,11H-10,6-(azeno)-12,16-(metheno)-1,5,11,13-benzodioxadiazacyclooctadecin-8-yl]methyl}sulfonyl)ethanamine] | 386 | 10 | – | –
12 | ({[15,19-difluoro-3,4-dihydro-2H,11H-10,6-(azeno)-12,16-(metheno)-1,5,11,13-benzodioxadiazacyclooctadecin-8-yl]methyl}sulfonyl)acetic acid [Example 27] | – | 2.3 | 3360 | –
